Source: article PMC4478806 (The FASEB Journal, 2015)
Values joined by “and” are separate entries in the source; they are usually repeats but may differ in a detail not shown here. Equal values may be shown once. Read-outs that look alike come from different tables or passages of the source.

Tests used:
human β1-adrenoceptor [1] = molecular target: T1, human β1-adrenoceptor (Homo sapiens, UniProt P08588); test: 3 nM BODIPY-TMR-CGP kinetics and influence of unlabeled ligands on its dissociation rate in CHO-β1 cells under infinite dilution; format: binding
T1 construct: expressed in transfected cells

human β1-adrenoceptor [2] = molecular target: T1, human β1-adrenoceptor; conditions: cited from earlier work
CHO-CS cells = test: Association and dissociation of BODIPY-TMR-CGP in control CHO-CS cells (nonspecific binding); parameters: species or system Chinese hamster; conditions: for koff(fast) / konobs: CHO-CS cells
Excerpt: Chinese hamster ovary (CHO)-K1 cells were used for all transient transfections. CHO-K1 cells stably expressing the secreted placental alkaline phosphatase reporter gene under the transcriptional control of a 6-cAMP response element promoter (CHO-CS cells) were used as a control, as appropriate. CHO-CS cell lines either expressing human wild-type β1-adrenoceptors (CHO-β1 cells; 1147 fmol/mg protein) ([6]) or human β1-adrenoceptors containing 11 amino acid mutations (G177V, L178I, V179I, C180L, T181M, A184I, I185V, A187G, V189T, L195Q, and W199Y that convert TM4 to the equivalent residues in the β2-adrenoceptor; CHO-β1TM4 cells) ([11]) were used. CHO-K1, CHO-CS, CHO-β1, and CHO-β1TM4 cells were grown at 37°C in CHO growth medium [DMEM/Ham's nutrient mixture F12 containing 10% (v/v) fetal calf serum and 2 mM L-glutamine] in a humidified 5% CO2/95% air atmosphere.
(§1) Live cell fluorescence imaging was performed on the Zeiss LSM510 laser scanning confocal microscope using a Zeiss Plan-Neofluar ×40 1.3 NA oil-immersion objective in conjunction with a temperature-controlled (37°C) perfusion system to allow the visualization and quantification of BODIPY-TMR-CGP dissociation kinetics under infinite dilution (ID) conditions in single living cells ([25]). Kinetic experiments were performed as described by May et al. ([25]). In brief, cells were grown to near confluence on 32 mm glass coverslips in 6-well plates 1 d prior to experimentation. On the day of experimentation, the coverslip was placed into a tightly closed imaging chamber on a heated (37°C) microscope stage, where it was connected to tubes to facilitate the flow of imaging buffer through the imaging chamber in the absence and presence of BODIPY-TMR-CGP and/or unlabeled ligands at a constant flow rate of ≥4 ml/min.
(§2) For association and dissociation kinetic experiments of 10–100 nM BODIPY-TMR-CGP in CHO-β1 and CHO-CS cells, the cells were exposed to imaging buffer only (30 s baseline fluorescence recording), then BODIPY-TMR-CGP (4.5 min association), and followed again by imaging buffer only (4.5 min dissociation). BODIPY-TMR-CGP was excited using a 543 nm helium-neon laser with emission collected through a 565 nm long-pass filter every 3 s throughout each experiment (512 × 512 pixels, averaging at 2 frames). The pinhole diameter (1 airy unit), laser power (2%), offset, and gain remained constant between the 3 BODIPY-TMR-CGP concentrations and the 2 cell lines used. Membrane-associated BODIPY-TMR-CGP fluorescence was measured by drawing regions of interest (ROIs) around the membranes of 10 single cells of each imaged coverslip, and changes in the average pixel intensity values for each ROI over time were analyzed to obtain association and dissociation rates for each experiment.
(§3) GraphPad Prism 5.0 (GraphPad Software, San Diego, CA, USA) was used to fit all data presented in this study. Association kinetic data were fitted using the following monoexponential association equation: [drawing 1] where Y0 is the level of BODIPY-TMR-CGP binding at time t = 0 (i.e., baseline fluorescence), Plateau is the level of BODIPY-TMR-CGP binding at infinite time, and konobs is the rate of observed association.
The koff is the dissociation rate of BODIPY-TMR-CGP. […]

human β1-adrenoceptor [3] = molecular target: T1, human β1-adrenoceptor; test: Association and dissociation kinetics of 10, 30 and 100 nM BODIPY-TMR-CGP in CHO-β1 cells (confocal perfusion system, single living cells); format: binding; conditions: for pKD: from kon and koff(slow); for koff(fast): nonspecific component constrained to average CHO-CS dissociation rate
Experimental: as §1, §2, §3
The koff is the dissociation rate of BODIPY-TMR-CGP. Where a level of nonspecific binding >10% of total binding was observed, the dissociation kinetic data were fitted to a 2-phase exponential decay function [drawing 5] where Plateau and t are as defined above, and Spanfast and Spanslow represent the proportion of Y0-Plateau accounted for by the fast (koff(fast)) and slow (koff(slow)) dissociation rate, respectively. Within this analysis, koff(fast) and Plateau was constrained to the average rate of dissociation and the average Plateau (in %) reached by BODIPY-TMR-CGP in control CHO-CS cells (i.e., cell not expressing the receptor of interest to determine the nonspecific BODIPY-TMR-CGP binding component).

[4] = molecular target: T2, SNAP-β1D138A β1-adrenoceptor (Homo sapiens, UniProt P08588, D138A); test: Confocal imaging of 3 nM BODIPY-TMR-CGP binding to SNAP-tagged D138A β1-adrenoceptor in CHO-K1 cells; conditions: CHO-K1 cells transiently transfected with SNAP-β1D138A, 10 min
T2 construct: expressed in transfected cells; host or cells: CHO-K1 cells, transient transfection (pcDNA3.1)
Excerpt: The β1-yellow fluorescent protein (YFP)N and β1-YFPC receptor constructs were generated by fusing either the N-terminal fragment of YFP (YFPN; amino acids 1–155) or the C-terminal fragment of YFP (YFPC; amino acids 156–239) to the C-terminal end of the full-length wild-type human β1-adrenoceptor. The SNAP-β1 construct was generated by fusing the SNAP-tag (New England Biolabs, Ipswich, MA, USA) to the N-terminal end of the wild-type human β1-adrenoceptor. The D138A mutation ([7]) was introduced into the β1-YFPC and the SNAP-β1 sequence using the QuikChange site-directed mutagenesis kit (Agilent Technologies, Cheshire, United Kingdom). All sequences were confirmed by DNA sequencing. All receptor constructs were subcloned into pcDNA3.1 vectors.
Confocal microscopy was performed using a Zeiss LSM710 laser scanning microscope with a ×40 1.3 NA oil immersion lens. CHO-K1 cells were grown to 70% confluence in 8-well Labtek borosilicate chambered-cover glasses (Nalgene Nunc International, Fisher Scientific) and transiently transfected with SNAP-β1 or SNAP-β1D138A recombinant DNA using Lipofectamine 2000 and Opti-MEM medium according to the manufacturer’s instructions. […]

[5] = molecular target: T3, β1YFPN/β1D138AYFPC BiFC-constrained β1-adrenoceptor homodimers (Homo sapiens, UniProt P08588); test: 3 nM BODIPY-TMR-CGP dissociation at BiFC-constrained wild-type/nonligand-binding β1-adrenoceptor homodimers in CHO-K1 cells; conditions: infinite dilution, absence of unlabeled ligands
T3 construct: to the C-terminal end of the full-length wild-type human β1-adrenoceptor; expressed in transfected cells; host or cells: CHO-K1 cells, transient co-transfection (pcDNA3.1)
Excerpt: (§4) The SNAP-β1 construct was generated by fusing the SNAP-tag (New England Biolabs, Ipswich, MA, USA) to the N-terminal end of the wild-type human β1-adrenoceptor. The […] mutation ([7]) was introduced into the β1-YFPC and the SNAP-β1 sequence using the QuikChange site-directed mutagenesis kit (Agilent Technologies, Cheshire, United Kingdom). All sequences were confirmed by DNA sequencing. All receptor constructs were subcloned into pcDNA3.1 vectors. In bimolecular fluorescence complementation (BiFC) experiments, CHO-K1 cells were seeded onto coverslips on day 1 and transiently transfected with YFPN- and YFPC-tagged β1-adrenoceptor recombinant DNA (750 ng total) using Lipofectamine 2000 and Opti-MEM medium according to the manufacturer's instructions on day 2. […] In BiFC experiments, membrane-associated BODIPY-TMR-CGP fluorescence was measured by drawing ROIs around membranes of cells that were identified to express BiFC-constrained homodimers by examination of the YFP fluorescence. […] The koff is the dissociation rate of BODIPY-TMR-CGP. […] Within this analysis, koff(fast) and Plateau was constrained to the average rate of dissociation and the average Plateau (in %) reached by BODIPY-TMR-CGP in control CHO-CS cells (i.e., cell not expressing the receptor of interest to determine the nonspecific BODIPY-TMR-CGP binding component).

[6] = molecular target: T4, β1YFPN/β1YFPC BiFC-constrained β1-adrenoceptor homodimers (Homo sapiens, UniProt P08588); test: 3 nM BODIPY-TMR-CGP dissociation at BiFC-constrained wild-type β1-adrenoceptor homodimers in CHO-K1 cells; format: binding; conditions: infinite dilution, absence of unlabeled ligands
T4 construct: to the C-terminal end of the full-length wild-type human β1-adrenoceptor; expressed in transfected cells; host or cells: CHO-K1 cells, transient co-transfection (pcDNA3.1)
Excerpt: as §4

[7] = molecular target: T5, human β1-adrenoceptors containing 11 amino acid mutations that convert TM4 to the β2-adrenoceptor residues (CHO-β1TM4 cells) (Homo sapiens, UniProt P08588, A184I/A187G/C180L/G177V/I185V/L178I/L195Q/T181M/V179I/V189T/W199Y); test: 3 nM BODIPY-TMR-CGP dissociation in absence and presence of unlabeled ligands in CHO-β1TM4 cells; format: binding; conditions: infinite dilution, absence of unlabeled ligands
T5 construct: expressed in transfected cells
Experimental: Chinese hamster ovary (CHO)-K1 cells were used for all transient transfections. CHO-K1 cells stably expressing the secreted placental alkaline phosphatase reporter gene under the transcriptional control of a 6-cAMP response element promoter (CHO-CS cells) were used as a control, as appropriate. […] In BiFC experiments, membrane-associated BODIPY-TMR-CGP fluorescence was measured by drawing ROIs around membranes of cells that were identified to express BiFC-constrained homodimers by examination of the YFP fluorescence. […] The koff is the dissociation rate of BODIPY-TMR-CGP. […] Within this analysis, koff(fast) and Plateau was constrained to the average rate of dissociation and the average Plateau (in %) reached by BODIPY-TMR-CGP in control CHO-CS cells (i.e., cell not expressing the receptor of interest to determine the nonspecific BODIPY-TMR-CGP binding component).

[8] = 3 nM BODIPY-TMR-CGP, global fit of association and dissociation traces
[9] = 3 nM BODIPY-TMR-CGP, based on affinity from functional assays

T1 sequence (P08588 whole entry): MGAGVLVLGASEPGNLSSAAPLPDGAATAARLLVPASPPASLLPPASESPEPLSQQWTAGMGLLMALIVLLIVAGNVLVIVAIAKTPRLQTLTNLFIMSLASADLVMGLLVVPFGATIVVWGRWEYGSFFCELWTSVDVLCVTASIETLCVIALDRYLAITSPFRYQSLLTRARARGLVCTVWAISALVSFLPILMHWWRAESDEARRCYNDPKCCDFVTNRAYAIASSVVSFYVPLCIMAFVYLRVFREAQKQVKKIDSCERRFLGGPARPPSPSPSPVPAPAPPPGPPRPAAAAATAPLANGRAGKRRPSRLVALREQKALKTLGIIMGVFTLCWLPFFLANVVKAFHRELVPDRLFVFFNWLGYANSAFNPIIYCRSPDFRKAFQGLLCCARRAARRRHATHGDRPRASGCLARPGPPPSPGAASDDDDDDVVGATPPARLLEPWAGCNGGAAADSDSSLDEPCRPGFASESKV
T4 sequence (P08588 whole entry): as above
T4 sequence (P08588 whole entry): as above
T5 sequence (P08588 whole entry G177V/L178I/V179I/C180L/T181M/A184I/I185V/A187G/V189T/L195Q/W199Y): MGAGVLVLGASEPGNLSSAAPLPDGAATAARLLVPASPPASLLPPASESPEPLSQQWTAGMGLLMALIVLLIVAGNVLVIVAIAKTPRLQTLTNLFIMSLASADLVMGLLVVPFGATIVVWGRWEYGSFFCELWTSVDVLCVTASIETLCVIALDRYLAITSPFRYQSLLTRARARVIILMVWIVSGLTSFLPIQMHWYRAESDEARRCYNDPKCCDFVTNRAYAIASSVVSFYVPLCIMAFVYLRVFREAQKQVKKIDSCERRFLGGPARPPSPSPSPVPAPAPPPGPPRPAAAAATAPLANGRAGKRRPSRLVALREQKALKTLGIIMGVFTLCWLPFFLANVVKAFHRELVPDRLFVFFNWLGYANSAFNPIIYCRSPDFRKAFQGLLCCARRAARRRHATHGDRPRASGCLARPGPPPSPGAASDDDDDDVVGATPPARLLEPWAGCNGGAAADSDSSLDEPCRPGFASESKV
T3 sequence (P08588 whole entry): as the sequence (P08588 whole entry) above
T3 sequence (P08588 whole entry D138A partner): as the sequence (P08588 whole entry) above, with D138A counted along it
T2 sequence (P08588 whole entry D138A): as the sequence (P08588 whole entry) above, with D138A counted along it

Substance: bordifluoropyrromethane-tetramethylrhodamine-(±)CGP 12177 [BODIPY-TMR-CGP]
- association rate constant (kon) (human β1-adrenoceptor [1]; [8]): 5.27 ± 0.53 × 10^7 M^−1⋅min^−1
- dissociation rate (koff) (human β1-adrenoceptor [1]; [8]): 0.0013 ± 0.00017 s⁻¹
- pKD (human β1-adrenoceptor [1]; [8]): 8.83 ± 0.06
- koff of 3 nM BODIPY-TMR-CGP (human β1-adrenoceptor [1]; infinite dilution, absence of unlabeled ligands, 1-phase dissociation): 0.0015 ± 0.00017 s⁻¹ and 0.0015 s⁻¹
- occupancy of the high-affinity β1-adrenoceptor conformation (human β1-adrenoceptor [2]; [9]): ~86%
- occupancy of the secondary low-affinity β1-adrenoceptor conformation (human β1-adrenoceptor [2]; [9]): ~3%
- Kd (human β1-adrenoceptor [2]; functional studies, read-out: affinity value for the high-affinity (orthosteric) β1-adrenoceptor conformation): 0.6 nM
- Kd (human β1-adrenoceptor [2]; read-out: affinity value for the low-affinity β1-adrenoceptor conformation): 87 nM
- koff(fast) (CHO-CS cells; 30 nM BODIPY-TMR-CGP): 0.041 ± 0.008 s⁻¹
- konobs (CHO-CS cells; 30 nM BODIPY-TMR-CGP): 1.40 ± 0.26 min⁻¹
- koff(fast) (CHO-CS cells; 100 nM BODIPY-TMR-CGP): 0.0412 ± 0.00217 s⁻¹
- konobs (CHO-CS cells; 100 nM BODIPY-TMR-CGP): 1.62 ± 0.13 min⁻¹
- average dissociation rate obtained in CHO-CS cells (CHO-CS cells; average over BODIPY-TMR-CGP concentrations, used as constraint for koff(fast)): 2.47 min⁻¹
- kon (human β1-adrenoceptor [3]; 10 nM BODIPY-TMR-CGP): 5.29 ± 0.79 ×10^7 M^−1⋅min^−1
- konobs (human β1-adrenoceptor [3]; 10 nM BODIPY-TMR-CGP): 0.63 ± 0.08 min⁻¹
- pKD (human β1-adrenoceptor [3]; 10 nM BODIPY-TMR-CGP): 8.71 ± 0.05
- koff(slow) (human β1-adrenoceptor [3]; 10 nM BODIPY-TMR-CGP, monoexponential dissociation): 0.09 ± 0.01 min⁻¹
- kon (human β1-adrenoceptor [3]; 30 nM BODIPY-TMR-CGP): 5.17 ± 0.28 ×10^7 M^−1⋅min^−1
- konobs (human β1-adrenoceptor [3]; 30 nM BODIPY-TMR-CGP): 1.64 ± 0.08 min⁻¹
- koff(slow) (human β1-adrenoceptor [3]; 30 nM BODIPY-TMR-CGP, 2-phase decay): 0.09 ± 0.01 min⁻¹
- pKD (human β1-adrenoceptor [3]; 30 nM BODIPY-TMR-CGP): 8.77 ± 0.08
- koff(fast) (human β1-adrenoceptor [3]; 30 nM BODIPY-TMR-CGP): 0.0412 s⁻¹
- kon (human β1-adrenoceptor [3]; 100 nM BODIPY-TMR-CGP): 2.94 ± 0.12^*^,^# ×10^7 M^−1⋅min^−1
- konobs (human β1-adrenoceptor [3]; 100 nM BODIPY-TMR-CGP): 3.08 ± 0.11 min^−1 and 3.08 ± 0.11^*^,^# min^−1
- koff(slow) (human β1-adrenoceptor [3]; 100 nM BODIPY-TMR-CGP, 2-phase decay): 0.14 ± 0.02^*^,^# min^−1
- pKD (human β1-adrenoceptor [3]; 100 nM BODIPY-TMR-CGP): 8.32 ± 0.06^*^,^#
- koff(fast) (human β1-adrenoceptor [3]; 100 nM BODIPY-TMR-CGP): 0.0412 s⁻¹
- binding of 3 nM BODIPY-TMR-CGP (membrane fluorescence) [4]: no binding
- koff of 3 nM BODIPY-TMR-CGP [5]: 0.0009 ± 0.000183 s⁻¹ and 0.00083 ± 0.00017 s⁻¹
- koff of 3 nM BODIPY-TMR-CGP [6]: 0.00033 ± 0.00017 s⁻¹ and 0.00033 s⁻¹
- koff of 3 nM BODIPY-TMR-CGP [7]: 0.0011 ± 8.3e-05 s⁻¹ and 0.0012 ± 0.00033 s⁻¹
